Earlier results in article PMC11785708, “Design and synthesis of new quinazolinone derivatives: investigation of antimicrobial and biofilm inhibition effects” (Molecular Diversity, 2024).

Tested on: Candida albicans
Set-up: method as in doi:10.1002/slct.201803795
Details: read-out: anti-biofilm activity IC50; cited from earlier work

SMILES: COc1cc(OC)c(-c2nc3ccccc3c(=O)[nH]2)c(OC)c1 [V]
- IC50: < 30 µM
